# Data taken from patent US20190008773A1, “MAGNETIC FIELD SENSITIVE NANO COMPLEX AND METHOD FOR MANUFACTURING THE SAME” (GWANGJU INSTITUTE OF SCIENCE AND TECHNOLOGY, priority 2017, published 2019).
# System: cell
# Experiment: cytotoxicity in a physiological environment (FIG. 8A)
# Assay type: cell-based
# Conditions: no alternating magnetic field
structure (smiles),measurement,value
"COc1cccc2c1C(=O)c1c(O)c3c(c(O)c1C2=O)C[C@@](O)(C(=O)CO)C[C@@H]3O[C@H]1C[C@H](N)[C@H](O)[C@H](C)O1 [free DOX, doxorubicin]",non-specific cytotoxicity,high
